From patent publication US4012576A, “Antibiotic complex Bu 2183” (priority 1975, dated 1977)
Values after ≈ are worked out from the molar mass of the structure shown. Like-named read-outs stand apart in the source and are kept apart here.

Tests used:
[1] = system: B. subtilis PCI 219; test: Effect of media pH on MIC, two-fold agar dilution; assay type: cell-based; conditions: Bacillus subtilis, PCI219, Table 8, Nutrient Agar
Excerpt: (§1) Effect of media pH on the MIC of Bu-2183 A was studied by two-fold agar dilution method using Nutrient Agar Medium at pH 6.0, 7.0, 8.0 and 9.0.

[2] = system: E. coli NIHJ; test: Effect of media pH on MIC, two-fold agar dilution; assay type: cell-based; conditions: Escherichia coli, Table 8, Nutrient Agar
Excerpt: as §1

[3] = system: K. pneumoniae D 11; test: Effect of media pH on MIC, two-fold agar dilution; assay type: cell-based; conditions: Klebsiella pneumoniae, D11, Table 8, Nutrient Agar
Excerpt: as §1

[4] = system: S. aureus Smith; test: Effect of media pH on MIC, two-fold agar dilution; assay type: cell-based; conditions: Staphylococcus aureus, Table 8, Nutrient Agar
Excerpt: as §1

[5] = system: Ps. aeruginosa D 15; test: Effect of media pH on MIC, two-fold agar dilution; assay type: cell-based; conditions: Pseudomonas aeruginosa, D15, Table 8, Nutrient Agar
Excerpt: as §1

[6] = Solubility; assay type: physicochemical; conditions: base
[7] = system: Ps. aeruginosa A20653; test: MIC, two-fold agar dilution on Nutrient Agar; assay type: cell-based; conditions: Pseudomonas aeruginosa, read-out: MIC
Experimental: (§2) The minimum inhibitory concentrations (MIC) of Bu-2183 A and B were determined against a wide variety of bacteria by the two-fold agar dilution method on Nutrient Agar plates. The inocula-replicating device of Steers et al. was used. Inoculum size was adjusted to be 10^4 dilution of overnight culture of the test organisms in Heart Infusion Broth (Difco). The results are shown in Table 6 along with those of kanamycin which was comparatively tested as a reference antibiotic.

[8] = system: E. coli A20895; test: MIC, two-fold agar dilution on Nutrient Agar; assay type: cell-based; conditions: Escherichia coli, read-out: MIC
Experimental: as §2

[9] = system: Ps. aeruginosa GN 315; test: MIC, two-fold agar dilution on Nutrient Agar; assay type: cell-based
Experimental: as §2

[10] = system: S. aureus Smith; test: MIC, two-fold agar dilution on Nutrient Agar; assay type: cell-based; conditions: Staphylococcus aureus, read-out: MIC
Experimental: as §2

[11] = system: Ps. aeruginosa A9930; test: MIC, two-fold agar dilution on Nutrient Agar; assay type: cell-based
Experimental: as §2

[12] = in vivo; conditions: for no death at doses up to: 21600 min
Experimental: The acute toxicity of Bu-2183 A and B was determined in mice by the subcutaneous and intravenous routes.

[13] = Titration in water; assay type: physicochemical
[14] = system: E. coli, K. pneumoniae, Ps. aeruginosa, S. aureus, B. subtilis; test: Effect of media pH on MIC (overall); assay type: cell-based; conditions: Nutrient Agar, pH 6.0-9.0
Excerpt: as §1

[15] = system: E. coli NIHJ; test: Experimental infection of mice, median protective dose; assay type: in vivo; conditions: Escherichia coli, sc, 120 h
Experimental: (§3) Bu-2183 A and B were evaluated in vivo in experimental infections of mice. The pathogenic bacteria employed were S. aureus Smith, E. coli NIHJ and Ps. aeruginosa A9930. Mice were challenged with a 100 × LD50 dose of the pathogens in a 5% suspension of hog gastric mucin. A single subcutaneous treatment with the antibiotic was made immediately after the bacterial challenge (0 hour), and in a double dose schedule the antibiotic was administered at 0 and 3 hours after the challenge.

[16] = system: S. aureus Smith; test: as above; assay type: in vivo; conditions: Staphylococcus aureus, sc, 120 h
Experimental: as §3

[17] = system: Ps. aeruginosa A9930; test: as above; assay type: in vivo; conditions: Pseudomonas aeruginosa, A9930, sc, 120 h
Experimental: as §3

[18] = system: eight test organisms; test: Effect of media on activity (overall); assay type: cell-based; conditions: pH 8; Nutrient Agar, Heart Infusion Agar, Mueller-Hinton Agar
Experimental: The effect of media on the activity of Bu-2183 A and B was determined against eight test organisms. The media tested were Nutrient Agar, Heart Infusion Agar and Mueller-Hinton Agar. The media pH was adjusted at pH 8.

[19] = Pseudomonas aeruginosa, GN315, Table 6, Pa-27, read-out: MIC
[20] = Pseudomonas aeruginosa, A9930, Table 6, Pa-3, read-out: MIC
[21] = double dose at 0 and 3 hours after challenge, read-out: PD50 (double doses)
[22] = subcutaneous, single dose at 0 hour, 100 × LD50 challenge, read-out: PD50 (single dose)

CCC(=O)NC1C(CO)OC(OC(C(O)CN)C(N)C(O)CO)C(O)C1O (centres unmarked) [Bu-2183 A]
MIC ([1]; pH 6): 50 µg/mL (≈ 126 µM) | MIC ([1]; pH 7): 6.3 µg/mL (≈ 15.9 µM) | MIC ([1]; pH 8): 6.3 µg/mL (≈ 15.9 µM) | MIC ([1]; pH 9): 6.3 µg/mL (≈ 15.9 µM) | MIC ([2]; pH 6): > 50 µg/mL | MIC ([2]; pH 7): 50 µg/mL (≈ 126 µM) | MIC ([2]; pH 8): 25 µg/mL (≈ 62.9 µM) | MIC ([2]; pH 9): 12.5 µg/mL (≈ 31.5 µM) | MIC ([3]; pH 6): 12.5 µg/mL (≈ 31.5 µM) | MIC ([3]; pH 7): 12.5 µg/mL (≈ 31.5 µM) | MIC ([3]; pH 8): 12.5 µg/mL (≈ 31.5 µM) | MIC ([3]; pH 9): 3.1 µg/mL (≈ 7.8 µM) | MIC ([4]; pH 6): > 50 µg/mL | MIC ([4]; pH 7): 50 µg/mL (≈ 126 µM) | MIC ([4]; pH 8): 50 µg/mL (≈ 126 µM) | MIC ([4]; pH 9): 50 µg/mL (≈ 126 µM) | MIC ([5]; pH 6): > 50 µg/mL | MIC ([5]; pH 7): 50 µg/mL (≈ 126 µM) | MIC ([5]; pH 8): 25 µg/mL (≈ 62.9 µM) | MIC ([5]; pH 9): 12.5 µg/mL (≈ 31.5 µM) | solubility in methanol and ethanol [6]: slightly soluble | solubility in n-butanol, acetone and other common organic solvents [6]: practically insoluble | solubility in water [6]: soluble | MIC ([7]; A20653, Table 6, Pa-12): 25 µg/mL (≈ 62.9 µM) | MIC ([7]; A20653, Table 7, Pa-12): 50 µg/mL (≈ 126 µM) | MIC ([8]; A20895, Table 6, Ec-62): 12.5 µg/mL (≈ 31.5 µM) | MIC ([8]; A20895, Table 7, Ec-62): 25 µg/mL (≈ 62.9 µM) | MIC [9, 19]: 25 µg/mL (≈ 62.9 µM) | MIC ([9]; Table 7, Pa-27): 25 µg/mL (≈ 62.9 µM) | MIC ([10]; Table 6, Sa-2): 12.5 µg/mL (≈ 31.5 µM) | MIC ([10]; Table 7, Sa-2): 25 µg/mL (≈ 62.9 µM) | MIC [11, 20]: 12.5 µg/mL (≈ 31.5 µM) | MIC ([11]; Table 7, Pa-3): 12.5 µg/mL (≈ 31.5 µM) | LD50 ([12]; mouse, in vivo, iv): 2500 mg/kg | LD50 at 360 h ([12]; mouse, in vivo, sc): 1000 mg/kg | pKa ([13]; read-out: pKa' (first value)): 6.9 | pKa ([13]; read-out: pKa' (second value)): 9.4 | effect of media pH on activity [14]: increased at alkaline pH and decreased at acidic pH | ED50 [15, 21]: 45 mg/kg | ED50 [15, 22]: 92 mg/kg | ED50 [16, 21]: 36 mg/kg | ED50 [16, 22]: 42 mg/kg | ED50 [17, 21]: 80 mg/kg | ED50 [17, 22]: 230 mg/kg | medium of greatest in vitro activity [18]: the greatest in vitro activity was demonstrated when Nutrient Agar was used

CC(=O)NC1C(CO)OC(OC(C(O)CN)C(N)C(O)CO)C(O)C1O (centres unmarked) [Bu-2183 B]
solubility in methanol and ethanol [6]: slightly soluble | solubility in n-butanol, acetone and other common organic solvents [6]: practically insoluble | solubility in water [6]: soluble | MIC ([7]; A20653, Table 6, Pa-12): 100 µg/mL (≈ 261 µM) | MIC ([8]; A20895, Table 6, Ec-62): 50 µg/mL (≈ 130 µM) | MIC [9, 19]: 50 µg/mL (≈ 130 µM) | MIC ([10]; Table 6, Sa-2): 50 µg/mL (≈ 130 µM) | MIC [11, 20]: 25 µg/mL (≈ 65.2 µM) | acute toxicity compared with Bu-2183 A ([12]; mice, i.v. and s.c.): much less toxic than Bu-2183 A | no death at doses up to ([12]; mouse, in vivo, iv): ≥ 2000 mg/kg | no death at doses up to ([12]; mouse, in vivo, sc): ≥ 2000 mg/kg | pKa ([13]; read-out: pKa' (first value)): 7.15 | pKa ([13]; read-out: pKa' (second value)): 9.35 | ED50 [15, 22]: 135 mg/kg | ED50 [16, 22]: 100 mg/kg | ED50 [17, 22]: 540 mg/kg | medium of greatest in vitro activity [18]: the greatest in vitro activity was demonstrated when Nutrient Agar was used
